This passage reports TGI and GI50 results from PubChem BioAssay (NCI).

Common to all, as to experiment: growth of human tumour cells (NCI), 48 h
Assay [1] relates to COLO 205 colon.
For assay [2], the system named is IGROV1 ovarian.
In assay [3] the test system is MOLT-4 leukemia.
Assay [4] deals with NCI-H226 lung.
The subject of assay [5] is NCI-H522 lung.
The subject of assay [6] is PC-3 prostate.
Assay [7] has as its system SK-MEL-28 melanoma.
The subject of assay [8] is SNB-75 CNS.
For assay [9], the system named is SR leukemia.
Assay [10] relates to U251 CNS.

SMILES strings stand for the structures.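 These data come from cells grown in 96-well plates and exposed to compound for 48 hours at five concentrations. Abbreviation: GI50, concentration required for 50% inhibition of growth. TGI is the concentration that stops growth completely.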

Turning to `NC(N)=NS(=O)(=O)c1ccc(NC(=O)c2ccc3nc4ccccc4c(Nc4ccc(S(N)(=O)=O)cc4)c3c2)cc1`, the TGI in assay [1], in [2], in [3], in [4], in assay [5] and in assay [6] was greater than 100 µM throughout. For the same compound, the TGI in [7], in [8], in [9] and in assay [10] was greater than 100 µM each time.

Regarding `Cc1ccc(-c2n[nH]c(=O)[nH]2)cc1[N+](=O)[O-]`, the TGI in [1], in assay [2], in assay [3], in assay [4], in [5] and in [6] was greater than 100 µM in each case. Further, the TGI in assay [7], in assay [8], in assay [9] and in assay [10] was greater than 100 µM throughout.

Consider `Cc1cc(=O)oc2cc(O)ccc12`, for which the TGI in [1], in [2], in [3], in [4], in assay [5] and in [6] was greater than 100 µM each time. Also, the TGI in [7], in [8], in assay [9] and in assay [10] was greater than 100 µM each time.

For the compound `O=S1(=O)c2ccccc2NC(=S)CC1c1ccccc1` (stereo not given), the TGI in assay [1], in assay [2], in assay [3], in [4], in assay [5] and in [6] was greater than 100 µM each time. Besides, the TGI in assay [7], in assay [8], in assay [9] and in [10] was greater than 100 µM each time.

In the case of `Oc1ccc(CCc2cc(O)cc(O)c2)cc1`, the TGI in assay [1], in assay [2], in assay [3], in [4], in [5] and in assay [6] was greater than 100 µM each time. Moreover, the TGI in assay [7], in assay [8], in assay [9] and in assay [10] was greater than 100 µM each time.

For the compound `COc1ccc2nc3cc(Cl)ccc3c(NCCNCCCNC(=O)c3cc(-c4ccccc4)nc4ccccc34)c2c1`, the TGI in [1], in assay [2], in assay [3], in assay [4], in assay [5] and in [6] was greater than 100 µM in each case. The TGI in [7], in assay [8], in assay [9] and in [10] was greater than 100 µM in each case.

As to `COc1ccc(C(=O)N2c3ccccc3Sc3ccccc32)c(C(F)(F)F)c1`, the GI50 was 0.319 µM in assay [1]; 2.2 µM in assay [2]; 0.406 µM in [3]; 1.39 µM in assay [4]; 0.32 µM in assay [5]; 0.426 µM in assay [6]. Moreover, the GI50 in assay [7] is 9.17 µM; in assay [8] it was 0.264 µM; in [9], 0.312 µM; in assay [10], 0.5 µM. Besides, the TGI was 1.48 µM in [1]; greater than 100 µM in assay [2]; greater than 100 µM in [3]; 83.8 µM in assay [4]; 14.5 µM in assay [5]; greater than 100 µM in [6]. Also, the TGI in assay [7] is greater than 100 µM; in [8] it was greater than 100 µM; in assay [9], 76.9 µM; in assay [10], greater than 100 µM.

Consider `O=C1/C(=C2\Sc3c(ccc(Cl)c3Cl)C2=O)Sc2c1ccc(Cl)c2Cl`, for which the TGI in assay [1], in assay [2], in [3], in assay [4], in assay [5] and in assay [6] was greater than 100 µM each time. Further, the TGI in [7], in assay [8], in [9] and in [10] was greater than 100 µM in each case.

As for `CC(=O)c1cc2c(s1)C(=O)c1ccccc1C2=O`, the TGI in assay [1] was 28.9 µM; in assay [2], 5.5 µM; in assay [3], 8.67 µM; in [4], 11.4 µM; in assay [5], 3.5 µM; in assay [6], greater than 100 µM. Besides, the TGI in assay [7] is 36.2 µM; in assay [8] it was 23.1 µM; in [9], greater than 100 µM; in [10] it was 17 µM.

Turning to `CSC1=NS(=O)(=O)c2cc(C(=O)NN(C)C(=O)c3cc4c(cc3Cl)SC(SC)=NS4(=O)=O)c(Cl)cc2S1`, the TGI in [1], in [2], in [3], in assay [4], in assay [5] and in assay [6] was greater than 10 µM in each case. The TGI in [7], in assay [8], in [9] and in assay [10] was greater than 10 µM throughout.

Regarding `COC(=O)[C@@H]1C[C@@]2(C3C=CN(C(=O)C(F)(F)F)C=C3)c3ccccc3N(C(=O)C(F)(F)F)[C@H]2N1C(=O)OC`, the TGI in assay [1], in [2], in assay [3], in assay [4], in assay [5] and in assay [6] was greater than 100 µM each time. Also, the TGI in [7], in [8], in assay [9] and in assay [10] was greater than 100 µM throughout.

Take `CC1(C)Oc2ccc(NC(=O)CCC(N)C(=O)O)cc2O1` (stereo not given): the TGI in [1], in [2], in assay [3], in assay [4], in assay [5] and in assay [6] was greater than 100 µM each time. The TGI in assay [7], in assay [8], in [9] and in assay [10] was greater than 100 µM each time.

For the compound `COc1cc2c(/C=C3/C(=O)N(c4ccccc4)c4ccccc43)c(Cl)[nH]c2cc1C`, the TGI is 7.05 µM in assay [1]; greater than 25.8 µM in [2]; 9 µM in [3]; greater than 100 µM in [4]; 6.24 µM in assay [5]; greater than 33.3 µM in assay [6]. Also, the TGI in [7] was greater than 100 µM; in [8] it was 18.9 µM; in assay [9] it was 30.5 µM; in assay [10], greater than 33.3 µM.

Regarding `O=C(NCCCNCCNC(=O)c1cc(-c2ccccc2)nc2ccccc12)c1cc(-c2ccccc2)nc2ccccc12`, the TGI came out at 3.21 µM in [1]; 3.59 µM in [2]; 4.31 µM in [3]; 5.05 µM in [4]; 3.14 µM in assay [5]; 3.09 µM in [6]. Further, the TGI came to 3.26 µM in [7], 2.83 µM in [8], 8.73 µM in assay [9] and 3.24 µM in [10].

In the case of `CN(Cc1cnc2nc(N)nc(N)c2n1)c1ccc(C(=O)NC(CCC(=O)NC(P(=O)(O)O)P(=O)(O)O)C(=O)O)cc1` (stereo not given), the TGI in assay [1], in [2], in [3], in assay [4], in [5] and in assay [6] was greater than 100 µM each time. For the same compound, the TGI in assay [7], in assay [8], in assay [9] and in assay [10] was greater than 100 µM each time.

For the compound `C/C(O)=C/c1nc2ccc([N+](=O)[O-])cc2nc1/C=C(/C)O`, the TGI in assay [1] is greater than 100 µM; in assay [2] it was greater than 100 µM; in [3] it was 72.2 µM; in [4] it was greater than 100 µM; in [5], 70 µM; in assay [6] it was greater than 100 µM. In addition, the TGI in assay [7] is greater than 100 µM; in assay [8] it was greater than 100 µM; in [9] it was 47 µM; in assay [10], greater than 100 µM.

As for `COc1cc(C2SCC(=O)N2c2ccc(Oc3ccc(Cl)cc3)c(Cl)c2)cc(OC)c1OC` (stereo not given), the TGI in assay [1] is 36.6 µM; in [2] it was 30.7 µM; in [3], greater than 100 µM; in assay [4], 31.9 µM; in assay [5], 37.1 µM; in [6], 28.9 µM. Moreover, the TGI is 35 µM in assay [7], 31.3 µM in [8], greater than 100 µM in assay [9] and greater than 100 µM in [10].

`C[C@]12CC[C@H](O)CC1=CC[C@@H]1[C@@H]2CC[C@]2(C)/C(=N/OCCN3CCCC3)CC[C@@H]12`: the TGI worked out at 30.1 µM in [1]; 34.3 µM in assay [2]; 34.8 µM in assay [3]; 30 µM in assay [4]; 25.7 µM in [5]; 39.4 µM in assay [6]. For the same compound, the TGI in assay [7] was 30.6 µM; in assay [8], 45 µM; in assay [9], 35.5 µM; in [10], 36.2 µM.

For the compound `NNc1nncn1N`, the TGI in [1], in assay [2], in assay [3], in assay [4], in assay [5] and in [6] was greater than 100 µM each time. Besides, the TGI in [7], in [8], in assay [9] and in assay [10] was greater than 100 µM in each case.

Consider `O=c1oc2ccc(Cl)cc2cc1-c1cn2cc(Cl)ccc2n1`, for which the TGI was greater than 100 µM in assay [1]; greater than 100 µM in assay [2]; greater than 100 µM in assay [3]; greater than 100 µM in assay [4]; 11.2 µM in [5]; greater than 100 µM in [6]. Also, the TGI in assay [7], in assay [8], in [9] and in assay [10] was greater than 100 µM throughout.

With `CCc1c(C)c(C#N)c(=S)n(C2OC(CO)C(O)C(O)C2O)c1C` (stereo not given), the TGI in assay [1], in [2], in assay [3], in [4], in assay [5] and in assay [6] was greater than 100 µM throughout. Further, the TGI in assay [7], in assay [8], in assay [9] and in assay [10] was greater than 100 µM each time.

Regarding `CC(C)CNC(=O)Cn1c(-c2ccccc2)cc2ccccc21`, the TGI in [1], in [2], in assay [3], in assay [4], in assay [5] and in [6] was greater than 100 µM throughout. The TGI in [7], in [8], in assay [9] and in [10] was greater than 100 µM throughout.

With `[N-]=[N+]=Nc1ccc(CNc2cc(=O)[nH]c(=O)[nH]2)cc1`, the TGI in assay [1], in assay [2], in [3], in assay [4], in assay [5] and in assay [6] was greater than 100 µM in each case. Moreover, the TGI in assay [7] was 99.6 µM; in assay [8], greater than 100 µM; in [9], greater than 100 µM; in assay [10] it was greater than 100 µM.

In the case of `Cn1c2ccccc2c2c3c(c4c5ccccc5n(C)c4c21)C(=O)c1ccccc1C3=O`, the TGI in [1] is greater than 100 µM; in assay [2], greater than 100 µM; in [3] it was greater than 100 µM; in assay [4] it was greater than 100 µM; in assay [5], 68.2 µM; in assay [6], greater than 100 µM. Also, the TGI in assay [7] was greater than 100 µM; in assay [8], greater than 100 µM; in [9], 40.2 µM; in assay [10], 45.9 µM.

Turning to `O=C(CNc1ccc(Cl)cc1Cl)NC1C=Cc2ccc(S(=O)(=O)Nc3ccc(Cl)cc3Cl)cc2C1=O` (stereo not given), the TGI in assay [1], in assay [2], in assay [3], in assay [4], in assay [5] and in assay [6] was greater than 100 µM throughout. Further, the TGI in [7], in assay [8], in [9] and in [10] was greater than 100 µM each time.

Turning to `CC1(COS(=O)(=O)OCC2(C)COS(=O)(=O)OC2)COS(=O)(=O)OC1`, the TGI is greater than 100 µM in [1]; greater than 100 µM in [2]; greater than 81.5 µM in assay [3]; greater than 96.8 µM in assay [4]; greater than 100 µM in assay [5]; greater than 100 µM in [6]. Besides, the TGI was greater than 100 µM in [7], greater than 100 µM in assay [8], greater than 56.9 µM in assay [9] and greater than 100 µM in assay [10].
